The text below walks through data of ChEMBL document CHEMBL1201862, “PubChem BioAssay data set” (2004).

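Following 48 hours of exposure in 96-well plates, responses at five concentrations were used to interpolate endpoints linearly. GI50 = concentration required for 50% inhibition of growth.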 Active and inactive are the calls of the source. Rule as the data show it: active = GI50 up to about 1.1 µM and inactive = higher. Bounds are passed on as bounds.

Holding throughout (assay): growth of human tumour cells (NCI), 48 h
For experiment [1], the system named is SF-268.
Experiment [2] concerns CCRF-CEM.
Experiment [3] relates to RPMI-8226.
The test system of experiment [4] is HOP-62.
Experiment [5] has as its system SF-539.
Experiment [6] has as its system K562.
Experiment [7] relates to HT-29.
Experiment [8] concerns SK-OV-3.
Experiment [9] deals with COLO 205.
Experiment [10] concerns NCI-H23.
Experiment [11] relates to LOX IMVI.
For experiment [12], the system named is NCI-H460.
For experiment [13], the system named is Malme-3M.
Experiment [14] relates to SW-620.
In experiment [15] the test system is HCT-116.
The subject of experiment [16] is A549.
The subject of experiment [17] is UACC-257.
Experiment [18] concerns SNB-75.
Experiment [19] has as its system KM12.
The test system of experiment [20] is A498.

For `COC(=O)c1c2n(c3ccccc13)C[C@H]1OC(C)(C)O[C@@H]21`, the GI50 in experiment [1], in experiment [2], in [3], in experiment [4], in [5] and in experiment [6] was > 100 µM (inactive) each time. Also, the GI50 in experiment [7], in [8], in experiment [9], in experiment [10], in experiment [11] and in [12] was > 100 µM (inactive) throughout. Moreover, the GI50 in [13] was > 47 µM (inactive); in experiment [14] it was > 100 µM (inactive); in [15], > 100 µM (inactive); in [16] it was > 100 µM (inactive); in [17] it was > 100 µM (inactive); in [18], > 100 µM (inactive). Moreover, the GI50 in [19] is > 43.8 µM (inactive); in [20], > 100 µM (inactive).

For the compound `CC(=O)OCCCCn1cnc2nc(Nc3ccccc3)nc(Cl)c21`, the GI50 is > 100 µM (inactive) in experiment [1]; 78.2 µM (inactive) in experiment [2]; > 100 µM (inactive) in experiment [3]; 62.7 µM (inactive) in [4]; > 100 µM (inactive) in experiment [5]; 99.1 µM (inactive) in [6]. The GI50 is 91.6 µM (inactive) in [7]; 97.3 µM (inactive) in experiment [8]; > 100 µM (inactive) in [9]; 67.5 µM (inactive) in experiment [11]; > 100 µM (inactive) in experiment [12]; 83.4 µM (inactive) in experiment [13]. The GI50 in experiment [14] was > 100 µM (inactive); in [15], 72.4 µM (inactive); in experiment [16], 61.7 µM (inactive); in [17] it was 58.7 µM (inactive); in experiment [18], 50.7 µM (inactive); in experiment [19] it was 91.4 µM (inactive). Moreover, in experiment [20], the GI50 is 73.1 µM (inactive).

As for `CCN(CC)CC(=N)N(CC)c1ccccc1`, the GI50 in [1], in experiment [2], in experiment [3], in [4], in experiment [5] and in experiment [6] was > 100 µM (inactive) each time. Besides, the GI50 in experiment [8], in experiment [9], in experiment [10], in [11], in experiment [12] and in experiment [13] was > 100 µM (inactive) each time. Besides, the GI50 in experiment [14] was > 100 µM (inactive); in [15], > 100 µM (inactive); in experiment [16], > 100 µM (inactive); in [17], 43.6 µM (inactive); in experiment [18] it was 33.7 µM (inactive); in [19], > 100 µM (inactive). Also, the GI50 in experiment [20] is > 100 µM (inactive).

For the compound `OC12c3ccccc3C1CCCCCC21OCCCO1` (stereo unspecified), the GI50 in experiment [1], in experiment [2], in experiment [3], in [4], in experiment [5] and in experiment [6] was > 100 µM (inactive) throughout. Further, the GI50 in experiment [7], in experiment [8], in experiment [9], in [10], in experiment [11] and in experiment [12] was > 100 µM (inactive) each time. Also, the GI50 in experiment [13], in [14], in experiment [15], in [16], in experiment [17] and in experiment [18] was > 100 µM (inactive) throughout. Also, the GI50 in experiment [19] and in [20] was > 100 µM (inactive) throughout.

As for `CCN(CC)Cc1ccc2cccnc2c1O`, the GI50 in experiment [1] was 22.6 µM (inactive); in experiment [2], 0.713 µM (active); in experiment [3] it was 3.1 µM (inactive); in experiment [4], 4.5 µM (inactive); in [5], 6.58 µM (inactive); in experiment [6] it was 2.15 µM (inactive). Besides, the GI50 in [7] was 2.9 µM (inactive); in experiment [8] it was 7.01 µM (inactive); in [9] it was 15.7 µM (inactive); in [10], 6.67 µM (inactive); in [11] it was 3.84 µM (inactive); in experiment [12], 3.82 µM (inactive). Moreover, the GI50 in experiment [13] is 2.81 µM (inactive); in experiment [14], 3.3 µM (inactive); in experiment [15], 3.59 µM (inactive); in experiment [16], 6.34 µM (inactive); in experiment [17], 4.91 µM (inactive); in experiment [18] it was 0.577 µM (active). Moreover, the GI50 in experiment [20] is 16.3 µM (inactive).

Take `O=C(NC1C2CC3CC(C2)CC1C3)c1cc(/C=C/c2ccccc2)nc(S)n1` (stereo unspecified): the GI50 in experiment [1], in experiment [2], in [3], in [4], in [5] and in experiment [6] was > 100 µM (inactive) in each case. Further, the GI50 in [8], in experiment [9], in [10], in experiment [11], in experiment [12] and in experiment [13] was > 100 µM (inactive) each time. Moreover, the GI50 in experiment [14], in experiment [15], in [16], in experiment [17], in experiment [18] and in experiment [19] was > 100 µM (inactive) throughout. Moreover, the GI50 in [20] is > 100 µM (inactive).

Take `CCN(CC)CCN(C(=O)c1ccc(F)cc1)c1ccccc1N`: the GI50 in [1], in experiment [2], in experiment [3], in experiment [4], in [5] and in experiment [6] was > 10 µM (inactive) each time. Also, the GI50 in experiment [7], in experiment [8], in experiment [9], in experiment [10], in [11] and in experiment [12] was > 10 µM (inactive) in each case. The GI50 in [13], in experiment [14], in experiment [15], in experiment [16], in experiment [18] and in [19] was > 10 µM (inactive) in each case. Moreover, the GI50 in experiment [20] is > 10 µM (inactive).

As to `CCC1C(c2ccccc2O)c2cc3c(cc2OC1N1CCOCC1)OCO3` (stereo unspecified), the GI50 is 14.7 µM (inactive) in [1]; 13.9 µM (inactive) in experiment [2]; 13.9 µM (inactive) in experiment [3]; 15.4 µM (inactive) in [4]; 16.3 µM (inactive) in experiment [5]; 11.5 µM (inactive) in experiment [6]. Also, the GI50 in [7] is 13.6 µM (inactive); in [8] it was 22.2 µM (inactive); in [9], 15.4 µM (inactive); in experiment [10], 18.2 µM (inactive); in experiment [11], 14.9 µM (inactive); in [12], 14.3 µM (inactive). Further, the GI50 in experiment [13] is 13 µM (inactive); in experiment [14], 15.9 µM (inactive); in experiment [15], 13.6 µM (inactive); in experiment [16], 14.4 µM (inactive); in experiment [17], 16 µM (inactive); in [18], 8.53 µM (inactive). In addition, the values for the GI50 in experiment [19] and in [20] were 13 µM (inactive) and 14.3 µM (inactive), respectively.

With `CCOC(=O)c1c2ccccc2n2c(=O)n(-c3ccccc3)nnc12`, the GI50 in [1] is > 100 µM (inactive); in experiment [2], 1.4 µM (inactive); in experiment [3] it was 15.3 µM (inactive); in [4], 27.5 µM (inactive); in experiment [5] it was > 96.4 µM (inactive); in experiment [6], 16.6 µM (inactive). Besides, the GI50 in experiment [9] was 40.7 µM (inactive); in [10] it was > 87.1 µM (inactive); in [11], 7.93 µM (inactive); in experiment [12], 30.7 µM (inactive); in experiment [13], > 100 µM (inactive); in [14], > 100 µM (inactive). Also, the GI50 is 73.8 µM (inactive) in experiment [15]; 63.4 µM (inactive) in experiment [16]; > 33.3 µM (inactive) in experiment [17]; 27.2 µM (inactive) in [18]; 61 µM (inactive) in experiment [19]; > 21.2 µM (inactive) in [20].

With `Cn1ccc(C(=O)NCCN(CCNC(=O)c2ccn(C)c(=O)c2O)CCNC(=O)c2ccn(C)c(=O)c2O)c(O)c1=O`, the GI50 in experiment [1], in experiment [2], in experiment [3], in experiment [4], in experiment [5] and in [6] was > 100 µM (inactive) each time. Also, the GI50 in experiment [7], in [8], in experiment [9], in experiment [10], in experiment [12] and in experiment [13] was > 100 µM (inactive) throughout. The GI50 in [14], in experiment [16], in [17], in [18], in [19] and in experiment [20] was > 100 µM (inactive) each time.
